Where “and” joins values, the source holds several entries; their conditions need not be identical. Equal values may be shown once.
Key:
[1] = target: T1, RORγt ligand-binding domain (RORγt-LBD) (Homo sapiens, UniProt P51449); experiment: Time-resolved FRET (TR-FRET) RORγt coactivator assay; format: biochemical; settings: GST-RORγ-LBD, biotinylated RIP140 peptide, 2 hours; read-out: IC50, coactivator-RORγt binding inhibition (TR-FRET)
T1 construct: 20 nM recombinantly expressed RORγ-LBD fused to GST
T1 sequence (P51449 269-508 limits assumed): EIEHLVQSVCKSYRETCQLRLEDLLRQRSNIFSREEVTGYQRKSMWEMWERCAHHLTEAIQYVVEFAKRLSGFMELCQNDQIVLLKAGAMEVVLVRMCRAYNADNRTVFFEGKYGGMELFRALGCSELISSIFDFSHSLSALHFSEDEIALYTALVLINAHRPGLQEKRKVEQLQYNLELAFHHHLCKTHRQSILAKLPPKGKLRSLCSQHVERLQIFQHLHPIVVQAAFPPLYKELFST
Source text: Time-resolved FRET (TR-FRET) RORγt coactivator assay was used to identify RORγ modulator compounds with ligand-dependent coactivator displacement. The assay uses a d2-labeled anti-GST antibody, synthetic N-terminally biotinylated peptide which is derived from nuclear receptor coactivator protein RIP140, and a RORγt ligand-binding domain (RORγt-LBD) that is tagged with glutathione-S-transferase (GST). The influence of compounds on the RORγ-peptide interaction relies on the binding dependent energy transfer from a donor to an acceptor fluorophor attached to the binding partner of interest. […] For reduction of background from compound fluorescence, TR-FRET method makes use of generic fluorophore labels and time resolved detection.
The assays were done in a final volume of 20 μl in a 384 well plate in a CHAPS buffer (2 mM CHAPS; 1 mM DTT, 2 mM EDTA; 0.1% BSA), containing 20 nM recombinantly expressed RORγ-LBD fused to GST, 30 nM N-terminally biotinylated peptide, 1 nM streptavidin-terbium conjugate and 20 nM d2 labeled-anti-GST. Test compounds were diluted using 10 mM stock solution. The range of the final compound concentrations used in this test was from 0.3 nM to 30 μM (logarithmic scale). DMSO content of the samples was kept at 1%. The assay was equilibrated for 2 hours in the dark at room temperature in 384 well plates (Falcon). The signal was detected by an Ultra384 reader (TECAN). […] Compounds that promote coactivator displacement induce a concentration-dependent decrease in time-resolved fluorescent signal. Data were collected and analyzed using GraphPad Prism software (GraphPad Software V5.02, San Diego Calif. USA). IC50 in μM and Emax in % were reported for each compound.

[2] = target: T2, human RORγt (Homo sapiens, UniProt P51449); experiment: IL-17 secretion from EL4 murine lymphoma cells overexpressing human RORγt; format: cell-based; settings: human RORγt-transfected EL4 cells, PMA and ionomycin stimulation; read-out: IC50, inhibition of IL-17 secretion
T2 sequence (P51449 1-497 isoform P51449-2): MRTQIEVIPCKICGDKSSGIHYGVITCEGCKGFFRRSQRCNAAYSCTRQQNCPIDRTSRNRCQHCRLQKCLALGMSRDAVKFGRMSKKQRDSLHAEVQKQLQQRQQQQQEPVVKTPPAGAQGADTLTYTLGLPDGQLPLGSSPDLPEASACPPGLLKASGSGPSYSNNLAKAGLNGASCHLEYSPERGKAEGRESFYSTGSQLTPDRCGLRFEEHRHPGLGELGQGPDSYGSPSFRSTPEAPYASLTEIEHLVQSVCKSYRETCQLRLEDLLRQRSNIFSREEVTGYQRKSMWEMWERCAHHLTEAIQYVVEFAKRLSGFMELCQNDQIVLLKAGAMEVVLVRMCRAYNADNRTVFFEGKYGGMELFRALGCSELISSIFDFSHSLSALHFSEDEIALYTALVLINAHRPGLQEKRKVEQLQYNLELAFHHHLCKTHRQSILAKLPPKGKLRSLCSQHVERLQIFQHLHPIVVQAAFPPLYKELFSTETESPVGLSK
Protocol: Murine EL-4 lymphoma cell line overexpressing human RORγt was used in this functional assay to assess compound ability to inhibit IL-17 cytokine secretion.
EL-4 cells are maintained in a standard culture medium RPMI supplemented with 10% fetal calf serum, 1% sodium pyruvate, 1% essential amino acids and 1% antibiotics at 37° C. in a humidified atmosphere of 5% CO02 and 95% air. Culture medium was changed every 2 days. EL4 cells were transfected with a plasmid encoding hRORγt (sequence identical to published sequence NM 001001523). […] Briefly, 1 μg of DNA/1 million cells was served to transfect EL-4 cells. Cell/DNA suspension was transferred into certified cuvette and the electroporation of RORγt plasmid was carried out using appropriate Nucleofector® program.
Cells were seeded in 96 well plates at a density of 150000 cells/I well then treated with compounds of this invention at indicated concentrations and incubated for 24 hours at 37° C. in a humidified atmosphere of 5% CO2 and 95% air. EL-4 cells were pretreated with test compounds (RORγ modulators) and stimulated with PMA (10 ng/mL) and ionomycin (1 μM final concentration) in the presence of test compound concentrations for additional 24 h at 37° C. in a humidified atmosphere of 5% CO2 and 95% air. Subsequently, supernatants were collected (after centrifugation at 300 g for 10 minutes) to determine the concentrations of IL-17 by HTRF (CisBio, France) or ELISA (R&D Systems Europe) according to the manufacturer's protocols.

[3] = target: T2, human RORγt; experiment: RORE Luciferase/RORγt transactivation assay; format: cell-based; set-up: the full-length cDNA of human RORγt; V5-His (encoded by the vector); expressed in transfected cells; host or cells: COS-7 (monkey kidney); settings: COS-7 cells transfected with human IL-17 promoter luciferase reporter and RORγt plasmid, 20 h; read-out: IC50, RORγt activity inhibition (luciferase reporter)
Protocol: It is well known that RORγ binds to a conserved non-coding sequence (CNS) enhancer element in the IL-17 promoter.
Culture medium was changed every 2 days.
The 4.3 Kb human IL-17 promoter containing the RORγ-specific CNS enhancer element was PCR amplified from human genomic DNA and cloned into a pGL3-TKLuc2Cp reporter plasmid.
The luciferase reporter plasmid and the RORγt overexpression plasmid were transfected into COS-7 cell line using 4 μLJetPEI™/μg of DNA. Briefly, 150 ng of DNA (ration 1/2 between RORE-Tk Luc2Cp and cDNA RORγt or the empty vector for the negative control) was served to transfect adherent COS-7 cells in a […] culture flask, in complete medium (see cos-7 cell line culture).
Cells were then detached (using trypsin) and washed by centrifugation at 300 g for 10 minutes. Cell pellet was resuspended in serum free/phenol red free DMEM and seeded in 384 well plates at a density of 10000 cells/well and then incubated for 4 h at 37° C.
Compounds were dissolved in 100% DMSO to obtain 10 mM stock solutions. For each compound, test concentrations were diluted in serum free/phenol red free DMEM using the Genesis Freedom 200™ (TECAN) and added to the cells to obtain a 0.3% DMSO final concentration (in a final volume of 40 μL per well).
The luciferase activity was then measured with 40 μL/well steady-Glo Luciferase assay system (Promega, Madison, Wis.) and after incubation at room temperature for 30 minutes. The luminescence was estimated using the Ultra384 reader (TECAN). Data were collected and analyzed using GraphPad Prism software (GraphPad Software V5.02, San Diego Calif. USA). IC50 in μM and Emax in % were reported for each compound.

| Compound | IC50 [1] | IC50 [2] [µM] | IC50 [3] [µM] |
| --- | --- | --- | --- |
| COc1ccc(C(NC(=O)Cc2cc(N3CCN(C(C)=O)CC3)ccc2F)c2ccccc2)c(N2CCCCCC2)c1 (centres unmarked) [Cpd.17, 2-[5-(4-acetylpiperazin-1-yl)-2-fluorophenyl]-N-{[2-(azepan-1-yl)-4-methoxyphenyl](phenyl)methyl}acetamide] | < 0.1 µM | 0.1 to 1 | 0.1 to 1 |
| Cc1ccc(C(NC(=O)Cc2cccc(N3CCN(S(N)(=O)=O)CC3)c2)c2ccc(C)o2)c(N2CCCCC2)c1 (centres unmarked) [Cpd.24, N-{[4-methyl-2-(piperidin-1-yl)phenyl](5-methylfuran-2-yl)methyl}-2-[3-(4-sulfamoylpiperazin-1-yl)phenyl]acetamide] |  |  | 0.1 to 1 |
| CC(=O)N1CCN(c2ccc(F)c(CC(=O)NC(c3ccccc3)c3ccc(C)cc3N3CCCCC3)c2)CC1 (centres unmarked) [Cpd.13, 2-[5-(4-acetylpiperazin-1-yl)-2-fluorophenyl]-N-{[4-methyl-2-(piperidin-1-yl)phenyl](phenyl)methyl}acetamide] | < 0.1 µM |  | 0.1 to 1 |
| Cc1ccc(C(NC(=O)Cc2cc(N3CCC(S(C)(=O)=O)CC3)ccc2F)c2ccc(C)o2)c(N2CCCCC2)c1 (centres unmarked) [Cpd.21, 2-[2-fluoro-5-(4-methanesulfonylpiperidin-1-yl)phenyl]-N-{[4-methyl-2-(piperidin-1-yl)phenyl](5-methylfuran-2-yl)methyl}acetamide] | < 0.1 µM |  | < 0.1 |
| CC(=O)N1CCN(c2ccc(CC(=O)NC(CC(C)C)c3ccccc3N3CCCCC3)cc2)CC1 (centres unmarked) [Cpd.2, 2-[4-(4-acetylpiperazin-1-yl)phenyl]-N-{3-methyl-1-[2-(piperidin-1-yl)phenyl]butyl}acetamide] | 0.1 to 1 µM |  | 0.1 to 1 |
| Cc1ccc(C(NC(=O)Cc2cc(N3CCNCC3)ccc2F)c2ccccc2)c(N2CCCCC2)c1 (centres unmarked) [Cpd.7, 2-[2-fluoro-5-(piperazin-1-yl)phenyl]-N-{[4-methyl-2-(piperidin-1-yl)phenyl](phenyl)methyl}acetamide] | 1 to 10 µM |  | > 10 |
| Cc1ccc(C(NC(=O)Cc2cc(N3CCN(C(=O)OC(C)(C)C)CC3)ccc2F)c2ccccc2)c(N2CCCCC2)c1 (centres unmarked) [Cpd.4, tert-butyl 4-{4-fluoro-3-[({[4-methyl-2-(piperidin-1-yl)phenyl](phenyl)methyl}carbamoyl)methyl]phenyl}piperazine-1-carboxylate] |  |  | 0.1 to 1 |
| COc1ccc(C(NC(=O)Cc2cc(N3CCN(C(C)=O)CC3)ccc2C)c2ccccc2)c(N2CCCCCC2)c1 (centres unmarked) [Cpd.15, 2-[5-(4-acetylpiperazin-1-yl)-2-methylphenyl]-N-{[2-(azepan-1-yl)-4-methoxyphenyl](phenyl)methyl}acetamide] | 0.1 to 1 µM and < 0.1 µM |  | 0.1 to 1 |
| Cc1ccc(C(NC(=O)Cc2cccc(N3CCN(C)CC3)c2)c2ccc(C)o2)c(N2CCCCC2)c1 (centres unmarked) [Cpd.23, N-{[4-methyl-2-(piperidin-1-yl)phenyl](5-methylfuran-2-yl)methyl}-2-[3-(4-methylpiperazin-1-yl)phenyl]acetamide] | < 0.1 µM |  | 0.1 to 1 |
| Cc1ccc(C(NC(=O)Cc2cc(N3CCN(C(=O)OC(C)(C)C)CC3)ccc2C)c2ccccc2)c(N2CCCCC2)c1 (centres unmarked) [Cpd.5, tert-butyl 4-{4-methyl-3-[({[4-methyl-2-(piperidin-1-yl)phenyl](phenyl)methyl}carbamoyl)methyl]phenyl}piperazine-1-carboxylate] | 1 to 10 µM |  | > 10 |
| Cc1ccc(C(NC(=O)Cc2cc(N3CCNCC3)ccc2C)c2ccc(C)o2)c(N2CCCCC2)c1 (centres unmarked) [Cpd.9, N-{[4-methyl-2-(piperidin-1-yl)phenyl](5-methylfuran-2-yl)methyl}-2-[2-methyl-5-(piperazin-1-yl)phenyl]acetamide] | 0.1 to 1 µM |  | 1 to 10 |
| Cc1ccc(C(NC(=O)Cc2cc(N3CCN(C(=O)OC(C)(C)C)CC3)ccc2C)c2ccc(C)o2)c(N2CCCCC2)c1 (centres unmarked) [Cpd.8, tert-butyl 4-{4-methyl-3-[({[4-methyl-2-(piperidin-1-yl)phenyl](5-methylfuran-2-yl)methyl}carbamoyl)methyl]phenyl}piperazine-1-carboxylate] | 1 to 10 µM |  | 0.1 to 1 |
| Cc1ccc(C(NC(=O)Cc2cc(N3CCNCC3)ccc2C)c2ccccc2)c(N2CCCCC2)c1 (centres unmarked) [Cpd.6, N-{[4-methyl-2-(piperidin-1-yl)phenyl](phenyl)methyl}-2-[2-methyl-5-(piperazin-1-yl)phenyl]acetamide] | 1 to 10 µM |  | 1 to 10 |
| Cc1ccc(C(NC(=O)Cc2cccc(N3CCC(S(C)(=O)=O)CC3)c2)c2ccc(C)o2)c(N2CCCCC2)c1 (centres unmarked) [Cpd.22, 2-[3-(4-methanesulfonylpiperidin-1-yl)phenyl]-N-{[4-methyl-2-(piperidin-1-yl)phenyl](5-methylfuran-2-yl)methyl}acetamide] | < 0.1 µM |  | < 0.1 |
| Cc1ccc(C(NC(=O)Cc2cccc(N3CCN(C(=O)C(F)(F)F)CC3)c2)c2ccc(C)o2)c(N2CCCCC2)c1 (centres unmarked) [Cpd.25, N-{[4-methyl-2-(piperidin-1-yl)phenyl](5-methylfuran-2-yl)methyl}-2-{3-[4-(trifluoroacetyl)piperazin-1-yl]phenyl}acetamide] | 0.1 to 1 µM |  | < 0.1 |

Reference: patent US10987351B2, “RORgamma modulators and uses thereof” (Genfit, priority 2017, dated 2021)
